Measured values taken from patent publication US10201563B2, “Method of treating sinusitis, including chronic sinusitis” (SINOX PHARMA, INC., priority 2010, dated 2019).

Tests used:
viruses [1] = settings: cited from earlier work
viruses [2] = assay type: cell-based
[3] = Gargle and nasal spray with ClO2 solution in people with sore throat, cold or sinusitis; settings: in vivo
flu viruses = settings: cited from earlier work
[4] = test system: most microorganisms, including gram negative bacteria, fungal spores, and viruses; assay type: cell-based
[5] = U.S. Pat. No. 5,731,347; Phase 2 clinical study; cited from earlier work

Compound	inactivation of all viruses tested (viruses [1])	deactivation of all viruses (viruses [2])	inflammation and discomfort noted by users [3]	toxicity or irritation to the mucus membranes [3]	kill of all flu viruses (flu viruses)	time to kill most microorganisms [4]	therapy for canker sores in the mouth [5]
chlorine dioxide	inactivated within a minute	deactivated in seconds	near-immediate reductions	non toxic or non-irritating	in a few seconds	about one	
CC(O)C(=O)O (stereo not shown) [lactic acid]							excellent therapy
